In patent US20210323950A1, “HERBICIDALLY ACTIVE BICYCLIC BENZOYLPYRAZOLES” (Bayer Aktiengesellschaft, priority 2018, published 2021):

Key:
Format in all cases: in vivo
Stellaria media (STEME) [1] = assay: Pre-emergence herbicidal action against STEME; details: 80 g/ha, scored visually after about 3 weeks vs untreated controls
Source text: (§1) STEME: Stellaria media 1. Pre-Emergence Herbicidal Action and Crop Plant Compatibility Seeds of monocotyledonous and dicotyledonous weed plants and crop plants are placed in plastic or organic planting pots and covered with soil. The compounds of the invention, formulated in the form of wettable powders (WP) or as emulsion concentrates (EC), are then applied onto the surface of the covering soil as aqueous suspension or emulsion with addition of 0.5% additive at a water application rate of […] (converted). After the treatment, the pots are placed in a greenhouse and kept under good growth conditions for the trial plants. After about 3 weeks, the effect of the preparations is scored visually in comparison with untreated controls as percentages. The tables below show the herbicidal activity of numerous compounds according to the invention against important harmful plants. For example, 100% activity=the plants have died, 0% activity=like control plants.

[2] = test system: Amaranthus retroflexus (AMARE); assay: Post-emergence herbicidal action against AMARE; details: 20 g/ha, post-emergence at one-leaf stage, rated visually after about 3 weeks vs untreated controls
Procedure: (§2) AMARE: Amaranthus retroflexus 2. Post-Emergence Herbicidal Action and Crop Plant Compatibility Seeds of monocotyledonous and dicotyledonous weeds and crop plants are placed in sandy loam in plastic or organic planting pots, covered with soil and cultivated in a greenhouse under controlled growth conditions. 2 to 3 weeks after sowing, the test plants are treated at the one-leaf stage. The compounds of the invention, formulated in the form of wettable powders (WP) or as emulsion concentrates (EC), are then sprayed onto the green parts of the plants as aqueous suspension or emulsion with addition of 0.5% additive at a water application rate of […] (converted). After the test plants had been kept in the greenhouse under optimum growth conditions for about 3 weeks, the activity of the preparations is rated visually in comparison to untreated controls. The tables below show the herbicidal activity of numerous compounds according to the invention against important harmful plants. For example, 100% activity=the plants have died, 0% activity=like control plants.

Stellaria media (STEME) [3] = assay: Post-emergence herbicidal action against STEME; details: 20 g/ha, post-emergence at one-leaf stage, rated visually after about 3 weeks vs untreated controls
Procedure: as §2, with “STEME: Stellaria media” for “AMARE: Amaranthus retroflexus”

Viola tricolor (VIOTR) = assay: Pre-emergence herbicidal action against VIOTR; details: 80 g/ha, scored visually after about 3 weeks vs untreated controls
Source text: as §1, with “VIOTR: Viola tricolor” for “STEME: Stellaria media”

[4] = test system: Amaranthus retroflexus (AMARE); assay: Pre-emergence herbicidal action against AMARE; details: 80 g/ha, scored visually after about 3 weeks vs untreated controls
Source text: as §1, with “AMARE: Amaranthus retroflexus” for “STEME: Stellaria media”

[5] = test system: Echinochloa crus-galli (ECHCG); assay: Pre-emergence herbicidal action against ECHCG; details: 80 g/ha, scored visually after about 3 weeks vs untreated controls
Source text: as §1, with “ECHCG: Echinochloa crus-galli” for “STEME: Stellaria media”

Setaria viridis (SETVI) [6] = assay: Post-emergence herbicidal action against SETVI; details: 20 g/ha, post-emergence at one-leaf stage, rated visually after about 3 weeks vs untreated controls
Procedure: as §2, with “SETVI: Setaria viridis” for “AMARE: Amaranthus retroflexus”

Setaria viridis (SETVI) [7] = assay: Pre-emergence herbicidal action against SETVI; details: 80 g/ha, scored visually after about 3 weeks vs untreated controls
Source text: as §1, with “SETVI: Setaria viridis” for “STEME: Stellaria media”

[8] = test system: Echinochloa crus-galli (ECHCG); assay: Post-emergence herbicidal action against ECHCG; details: 20 g/ha, post-emergence at one-leaf stage, rated visually after about 3 weeks vs untreated controls
Procedure: as §2, with “ECHCG: Echinochloa crus-galli” for “AMARE: Amaranthus retroflexus”

[9] = test system: Abutilon theophrasti (ABUTH); assay: Pre-emergence herbicidal action against ABUTH; details: 80 g/ha, scored visually after about 3 weeks vs untreated controls
Source text: as §1, with “ABUTH: Abutilon theophrasti” for “STEME: Stellaria media”

Row | Compound | Pre-emergence action against STEME (Stellaria media (STEME) [1]) | Post-emergence action against AMARE [2] | Post-emergence action against STEME (Stellaria media (STEME) [3]) | Pre-emergence action against VIOTR (Viola tricolor (VIOTR)) | Pre-emergence action against AMARE [4] | Pre-emergence action against ECHCG [5] | Post-emergence action against SETVI (Setaria viridis (SETVI) [6]) | Pre-emergence action against SETVI (Setaria viridis (SETVI) [7]) | Post-emergence action against ECHCG [8] | Pre-emergence action against ABUTH [9]
1 | Cc1nn(C)c(O)c1C(=O)c1ccc(C(F)(F)F)c2c1SCCS2 [Example 1-70] | 100% | 90% | 80% | 90% | 100% | – | – | – | – | –
2 | Cn1ncc(C(=O)c2ccc(C(F)(F)F)c3c2SCCS3)c1O [Example 1-60] | 90% | 90% | 80% | 100% | 100% | – | – | – | – | –
3 | CCn1ncc(C(=O)c2ccc(C(F)(F)F)c3c2SCCS3)c1O [Example 1-65] | 100% | 80% | – | 100% | 100% | 80% | 100% | 90% | 80% | –
4 | Cn1nc(C2CC2)c(C(=O)c2ccc(C(F)(F)F)c3c2OCS3)c1O [Example 1-112] | 90% | 100% | 80% | 90% | 100% | – | – | – | 80% | –
5 | Cc1nn(C)c(O)c1C(=O)c1ccc(C(F)(F)F)c2c1OCS2 [Example 1-23] | 100% | 100% | 80% | – | 80% | – | – | 100% | – | 100%
6 | CCn1ncc(C(=O)c2ccc(C(F)(F)F)c3c2SCS3(=O)=O)c1O [Example 1-89] | 100% | 90% | 80% | – | 100% | – | – | – | – | 90%
7 | Cn1ncc(C(=O)c2ccc(C(F)(F)C(F)(F)F)c3c2OCS3(=O)=O)c1O [Example 1-130] | 100% | 100% | 90% | – | 100% | – | – | – | – | –
8 | Cn1ncc(C(=O)c2ccc(C(F)(F)F)c3c2SCS3)c1O [Example 1-58] | 90% | 90% | 80% | 100% | 80% | – | 80% | – | – | –
9 | Cc1nn(C)c(O)c1C(=O)c1ccc(C(F)(F)F)c2c1SCS2(=O)=O [Example 1-93] | 90% | 90% | – | – | 100% | – | – | – | 80% | –
10 | CCn1ncc(C(=O)c2ccc(C(F)(F)C(F)(F)F)c3c2OCS3)c1O [Example 1-131] | 90% | – | – | 100% | 100% | – | 80% | 100% | 80% | 100%
